Source: patent EP4389749A1, “SUBSTITUTED 3,7-DIHYDRO-1H-PURINE-2,6-DIONES AND USE THEREOF” (invIOs GmbH, priority 2022, dated 2024)
Like-named read-outs stand apart in the source and are kept apart here.

Legend:
[1] = system: CD4+ T-cells; test: Immunostimulation assay with anti-CD3/28 stimulated T-cells, CD69 expression by flow cytometry; type: cell-based, human
Method in brief: (§1)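 Human CD4+/CD8+ T-cells purified from buffy-coat PBMCs were stimulated with 1 µg/ml anti-CD3 and 1 µg/ml anti-CD28 plus compound (0.001–30 µM) for 16 h at 37 °C. CD69 measured by flow cytometry; DMSO set minimal, CD3/28 Dynabeads maximal activation; EC50 by variable-slope fit.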

[2] = system: CD8+ T-cells; test: as above; type: cell-based, human
Method in brief: as §1

[3] = system: B16-SIY melanoma; test: Efficacy on B16-SIY melanoma, in vivo tumor growth; settings: p.o., over the course of 21 days, C57BL/6 mice, B16-SIY intradermal
Protocol: Eight-weeks-old C57BL/6 mice were purchased from Charles River. All animal experiments were in accordance with institutional guidelines of the Research Institute of Molecular Pathology (Austria) and approved according to the European Community rules of animal care with the permission of the Austrian Ministry of Science.
B16-SIY melanoma cells were cultured in DMEM containing 10 % FCS, 1 % PenStrep and 1 % glutamine and grown in a humidified incubator at 37 °C and 5 % CO2. For tumor inoculations sub-confluent B16-SIYcells were trypsinized, washed, counted and resuspended in PBS to a final concentration of 1×10^7 B16-SIY cells/ml.
30 C57BL/6 mice were inoculated intradermally with 1×10^6 B16-SIY cells and tumor bearing mice randomly assigned to 3 different groups […] post transplantation: Compound 142 30 mg/kg 3 days post B16-SIY inoculation and subsequent daily administration of 10 mg/kg (10 mice), Compound 142 9 mg/kg 3 days post B16-SIY inoculation and subsequent daily treatment of 3 mg/kg (10 mice), or vehicle control (10 mice). Compound 142 was diluted in 10 % DMSO, 20 % PEG400, 21 % HPbCD, 0.35 % HPMC and 48.65 % H2O and mice treated p.o. with 2 different treatment schedules: d3: 30 mg/kg + QD: 10 mg/kg or d3: 9 mg/kg + QD: 3 mg/kg (Figure 1). […] Tumors were measured daily and mice sacrificed 21 days post B16-SIY inoculation (Figure 1). […]

[4] = T-cell, purified human CD4+ and CD8+ T-cells, 1 µg/ml anti-CD3, 1 µg/ml anti-CD28, 16 hours, surface FACS, read-out: EC50 CD4+
[5] = T-cell, purified human CD4+ and CD8+ T-cells, 1 µg/ml anti-CD3, 1 µg/ml anti-CD28, 16 hours, surface FACS, read-out: EC50 CD8+

Row | SMILES | EC50 [1, 4] | EC50 [2, 5] | other results
1 | CC(O)Cn1c(=O)[nH]c(=O)c2c1nc(-c1ccc(Oc3ccc(OC(F)(F)F)cc3)cc1)n2C (centres unmarked) [Compound 142, 3-(2-hydroxypropyl)-7-methyl-8-(4-(4-(trifluoromethoxy)phenoxy)phenyl)-3,7-dihydro-1H-purine-2,6-dione] | 500 to 1000 nM | 500 to 1000 nM | Tumor volumes compared to vehicle control ([3]; d3: 9 mg/kg + QD: 3 mg/kg): significantly reduced; Tumor volumes compared to vehicle control ([3]; d3: 30 mg/kg + QD: 10 mg/kg): significantly reduced
2 | Cn1c(-c2ccc(OCc3ccccc3)c(OC(F)(F)F)c2)nc2c1c(=O)[nH]c(=O)n2CC(O)C(F)F (centres unmarked) [Compound 199, 8-(4-(benzyloxy)-3-(trifluoromethoxy)phenyl)-3-(3,3-difluoro-2-hydroxypropyl)-7-methyl-3,7-dihydro-1H-purine-2,6-dione] | < 100 nM | < 100 nM | –
3 | COc1cc(-c2nc3c(c(=O)[nH]c(=O)n3CC(C)CO)n2C)ccc1OCc1ccccc1 (centres unmarked) [Compound 56, 8-(4-(benzyloxy)-3-methoxyphenyl)-3-(3-hydroxy-2-methylpropyl)-7-methyl-3,7-dihydro-1H-purine-2,6-dione] | 100 to 500 nM | 100 to 500 nM | –
4 | COc1cc(-c2nc3c(c(=O)[nH]c(=O)n3CC(C)O)n2C)ccc1OCc1ccccc1 (centres unmarked) [Compound 16, 8-(4-(benzyloxy)-3-methoxyphenyl)-3-(2-hydroxypropyl)-7-methyl-3,7-dihydro-1H-purine-2,6-dione] | 500 to 1000 nM | 1000 to 5000 nM | –
5 | CC(O)Cn1c(=O)[nH]c(=O)c2c1nc(-c1ccc(Oc3ccc(F)c(C(F)(F)F)c3)cc1)n2C (centres unmarked) [Compound 195, 8-(4-(4-fluoro-3-(trifluoromethyl)phenoxy)phenyl)-3-(2-hydroxypropyl)-7-methyl-3,7-dihydro-1H-purine-2,6-dione] | 1000 to 5000 nM | 1000 to 5000 nM | –
6 | COc1ccc(COc2ccc(-c3nc4c(c(=O)[nH]c(=O)n4CC(C)O)n3C)cc2OC)cc1 (centres unmarked) [Compound 128, 3-(2-hydroxypropyl)-8-(3-methoxy-4-((4-methoxybenzyl)oxy)phenyl)-7-methyl-3,7-dihydro-1H-purine-2,6-dione] | 1000 to 5000 nM | 1000 to 5000 nM | –
7 | CC(CO)Cn1c(=O)[nH]c(=O)c2c1nc(-c1ccc(Oc3ccc(OC(F)F)cc3)c(Cl)c1)n2C (centres unmarked) [Compound 151, 8-(3-chloro-4-(4-(difluoromethoxy)phenoxy)phenyl)-3-(3-hydroxy-2-methylpropyl)-7-methyl-3,7-dihydro-1H-purine-2,6-dione] | 100 to 500 nM | 100 to 500 nM | –
8 | Cn1c(-c2ccc(OCc3ccc(C(F)F)cc3)c(F)c2)nc2c1c(=O)[nH]c(=O)n2CC(O)C(F)(F)F (centres unmarked) [Compound 18] | – | – | EC50 ([1]; 16 h): > 5000 nM; EC50 ([2]; 16 h): 1000 to 5000 nM
9 | COc1cc(-c2nc3c(c(=O)[nH]c(=O)n3CC(C)O)n2C)ccc1OCc1ccc(C(F)F)cc1 (centres unmarked) [Compound 86, 8-(4-((4-(difluoromethyl)benzyl)oxy)-3-methoxyphenyl)-3-(2-hydroxypropyl)-7-methyl-3,7-dihydro-1H-purine-2,6-dione] | 100 to 500 nM | 100 to 500 nM | –
10 | COc1cc(-c2nc3c(c(=O)[nH]c(=O)n3CC(C)O)n2C)ccc1OCc1ccc(C(F)(F)F)cc1 (centres unmarked) [Compound 89, 3-(2-hydroxypropyl)-8-(3-methoxy-4-((4-(trifluoromethyl)benzyl)oxy)phenyl)-7-methyl-3,7-dihydro-1H-purine-2,6-dione] | 500 to 1000 nM | 100 to 500 nM | –
11 | CC(O)Cn1c(=O)[nH]c(=O)c2c1nc(-c1ccc(Oc3ccc(Cl)cc3)cc1)n2C (centres unmarked) [Compound 138, 8-(4-(4-chlorophenoxy)phenyl)-3-(2-hydroxypropyl)-7-methyl-3,7-dihydro-1H-purine-2,6-dione] | 1000 to 5000 nM | 1000 to 5000 nM | –
12 | CC(O)Cn1c(=O)[nH]c(=O)c2c1nc(-c1ccc(Oc3ccc(C(F)(F)F)cc3)cc1)n2C (centres unmarked) [Compound 136, 3-(2-hydroxypropyl)-7-methyl-8-(4-(4-(trifluoromethyl)phenoxy)phenyl)-3,7-dihydro-1H-purine-2,6-dione] | 1000 to 5000 nM | 1000 to 5000 nM | –
13 | Cn1c(-c2ccc(Oc3ccc(OC(F)F)cc3)c(Cl)c2)nc2c1c(=O)[nH]c(=O)n2CC(O)CF (centres unmarked) [Compound 148, 8-(3-chloro-4-(4-(difluoromethoxy)phenoxy)phenyl)-3-(3-fluoro-2-hydroxypropyl)-7-methyl-3,7-dihydro-1H-purine-2,6-dione] | 100 to 500 nM | 100 to 500 nM | –
14 | CC(O)Cn1c(=O)[nH]c(=O)c2c1nc(-c1ccc(OCCc3ccccc3)c(F)c1)n2C (centres unmarked) [Compound 200, 8-(3-fluoro-4-phenethoxyphenyl)-3-(2-hydroxypropyl)-7-methyl-3,7-dihydro-1H-purine-2,6-dione] | 500 to 1000 nM | 100 to 500 nM | –
15 | CC(CO)Cn1c(=O)[nH]c(=O)c2c1nc(-c1ccc(OCc3ccccc3)c(OC(F)(F)F)c1)n2C (centres unmarked) [Compound 118, 8-(4-(benzyloxy)-3-(trifluoromethoxy)phenyl)-3-(3-hydroxy-2-methylpropyl)-7-methyl-3,7-dihydro-1H-purine-2,6-dione] | < 100 nM | 100 to 500 nM | –
16 | CC(O)Cn1c(=O)[nH]c(=O)c2c1nc(-c1ccc(OCc3ccc(Cl)c(F)c3)c(F)c1)n2C (centres unmarked) [Compound 93, 8-(4-((4-chloro-3-fluorobenzyl)oxy)-3-fluorophenyl)-3-(2-hydroxypropyl)-7-methyl-3,7-dihydro-1H-purine-2,6-dione] | 1000 to 5000 nM | 500 to 1000 nM | –
17 | COc1cc(-c2nc3c(c(=O)[nH]c(=O)n3CC(O)C(F)(F)F)n2C)ccc1OCc1ccc(C)cc1 (centres unmarked) [Compound 121, 8-(3-methoxy-4-((4-methylbenzyl)oxy)phenyl)-7-methyl-3-(3,3,3-trifluoro-2-hydroxypropyl)-3,7-dihydro-1H-purine-2,6-dione] | < 100 nM | < 100 nM | –
18 | Cc1ccc(COc2ccc(-c3nc4c(c(=O)[nH]c(=O)n4CC(O)CF)n3C)cc2F)cc1 (centres unmarked) [Compound 96, 3-(3-fluoro-2-hydroxypropyl)-8-(3-fluoro-4-((4-methylbenzyl)oxy)phenyl)-7-methyl-3,7-dihydro-1H-purine-2,6-dione] | 100 to 500 nM | 100 to 500 nM | –
19 | CC(O)Cn1c(=O)[nH]c(=O)c2c1nc(-c1ccc(OCc3ccccc3)cc1)n2C (centres unmarked) [Compound 78, 8-(4-(benzyloxy)phenyl)-3-(2-hydroxypropyl)-7-methyl-3,7-dihydro-1H-purine-2,6-dione] | 500 to 1000 nM | 100 to 500 nM | –
20 | Cn1c(-c2ccc(Oc3ccc(OC(F)F)cc3)c(Cl)c2)nc2c1c(=O)[nH]c(=O)n2CC(O)C(F)(F)F (centres unmarked) [Compound 162, 8-(3-chloro-4-(4-(difluoromethoxy)phenoxy)phenyl)-7-methyl-3-(3,3,3-trifluoro-2-hydroxypropyl)-3,7-dihydro-1H-purine-2,6-dione] | 500 to 1000 nM | > 5000 nM | –
21 | Cn1c(-c2ccc(Oc3ccc(OC(F)(F)F)cc3)c(F)c2)nc2c1c(=O)[nH]c(=O)n2CC(O)CF (centres unmarked) [Compound 149, 3-(3-fluoro-2-hydroxypropyl)-8-(3-fluoro-4-(4-(trifluoromethoxy)phenoxy)phenyl)-7-methyl-3,7-dihydro-1H-purine-2,6-dione] | 100 to 500 nM | 100 to 500 nM | –
